Measured values published in patent US5120729A, “Beta-lactams as antihypercholesterolemics” (Merck & Co., Inc., priority 1990, dated 1992).
Blank lines part the entries; values can stand above or below the molecule they belong to.

Biological target: T1, HMG-CoA synthase (Rattus norvegicus, UniProt P17425)
T1 construct: The livers from male Charles River CD rats (225-350 g) were homogenized; from tissue; host or cells: rat liver (male Charles River CD rats), 100,000×g supernatant, ammonium sulfate precipitate, DEAE-52 fraction
T1 sequence (P17425 1-520): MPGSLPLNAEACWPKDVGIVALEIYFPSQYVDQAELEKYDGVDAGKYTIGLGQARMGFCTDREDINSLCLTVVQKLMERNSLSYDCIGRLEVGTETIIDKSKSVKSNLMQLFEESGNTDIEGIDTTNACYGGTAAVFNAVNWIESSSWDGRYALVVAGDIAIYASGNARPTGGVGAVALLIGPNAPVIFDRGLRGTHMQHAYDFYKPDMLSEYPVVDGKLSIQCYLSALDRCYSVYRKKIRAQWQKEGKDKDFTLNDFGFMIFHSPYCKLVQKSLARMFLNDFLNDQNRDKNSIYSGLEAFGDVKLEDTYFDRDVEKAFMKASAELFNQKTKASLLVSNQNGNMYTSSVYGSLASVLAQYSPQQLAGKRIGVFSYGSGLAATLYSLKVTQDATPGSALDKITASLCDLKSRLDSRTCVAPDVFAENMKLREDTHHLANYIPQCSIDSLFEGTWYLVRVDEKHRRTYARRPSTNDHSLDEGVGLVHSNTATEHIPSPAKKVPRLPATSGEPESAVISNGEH
Assay: HMG-CoA synthase inhibition assay
Type: biochemical
Experimental: The intrinsic HMG-CoA synthase inhibition activity of the compounds of this invention is measured by the standard in vitro protocol described below:
The livers from male Charles River CD rats (225-350 g) were homogenized in 0.25M sucrose which was adjusted with phenylmethylsulfonylfluoride (PMSF) and N-p-tosyl-l-lysine chloromethyl ketone (TLCK) so that the final concentration of each was […], respectively. The homogenate was centrifuged at 15,000×g for 20 minutes, the supernatant filtered through a fine nylon screen to remove most of the fat layer and recentrifuged at 100,000×g for 1 hour. This supernatant was removed and 1M potassium phosphate, dithiothreitol (DTT) and ethylene glycolbis(β-aminoethyl ether)-N,N,N',N'-tetraacetic acid (EGTA) added to give a final concentration of 0.1M (pH 7.2), 0.5 mM and 0.1 mM, respectively. Solid ammonium sulfate was added to 50% saturation to the protein solution, it was centrifuged at 15,000×g and the supernatant discarded. This precipitated protein could be stored at -70° C. for at least one month with very little loss of activity. The ammonium sulfate precipitate was dissolved in an minimal amount of 0.06M potassium phosphate buffer (pH 7.2) containing 0.5 mM dithiothreitol and 0.1 mM EGTA (referred to as 0.06M phosphate buffer) and dialyzed overnight against 2 liters of the same buffer to remove the ammonium sulfate and to inactivate HMG-CoA lyase [Clinkenbeard, et al., J. Biol. Chem. 250, 3108-3116(1975)].
The dialyzed extract was added to a column of DEAE-52 (Whatman) which had been equilibrated with 0.06M phosphate buffer (10 mg of protein to 1 ml bed volume of the resin). The DEAE-cellulose was eluted with 0.06M phosphate buffer until the optical density at 280 nm was essentially zero. This fraction contained the β-ketoacetyl-CoA thiolase activity. The HMG-CoA synthase was eluted from the column with 0.1M phosphate buffer (pH 7.2) containing 0.5 mM DTT and 0.1 mM EGTA, and was virtually free of all thiolase activity. The protein was precipitated by the addition of ammonium sulfate to give 50% saturation. This solution was stirred for 10 minutes at 4° C. and the precipitate collected by centrifugation at 15,000 rpm for 10 minutes. The supernatant was discarded and the precipitate dissolved in a minimum of 0.06M phosphate buffer, pH 7.2 (about 10 ml) and the enzyme stored at -80° C.
HMG-CoA Synthase Inhibition Assay
Enzyme protein (ca. 24 mg) was added to a solution containing […] (pH 8.0), 11.7 μM MgCl2, 1.17 μM ethylenediaminetetraacetic acid (EDTA), 0.58 μM dithiothreitol, and the indicated concentrations of the test compound (added as a 2 mg/ml solution in dimethylsulfoxide). The incubation took place in a volume of 0.085 ml at 30° in a shaking water bath. After 5 minutes, […] of a solution containing acetoacetyl-CoA and 0.1 μCi of 1-[^14 C]-acetyl-CoA was added to give a final concentrations of 0.1 and 0.4 μM, respectively. The incubation was continued for 10 more minutes and the reaction stopped by the addition of […] of the assay mixture to 0.2 ml of 6N HCl in a glass scintillation vial. The vial was heated for 1 hour at 120° after which time 0.2 ml more of 6N HCl was again added to each vial and the heating continued for another hour. Following this, 1.0 ml of 0.9% saline was added to each vial and finally 10 ml of scintillation liquid. Radioactivity was determined in a Packard Tri-Carb liquid scintillation counter.
Percent inhibition is calculated by the formula: [formula]
IC50 values were determined by plotting the log of the concentration of the test compound verses the percentage inhibition and fitting a straight line to the resulting data by using the least squares method.

[1] = Table II, n is 1, R3 is C1-5 alkyl
[2] = Table IV, n is 2, R3 is CH3CH2 or CH3OCH2

IC50 (Table III, n is 2, R3 is H): 66 nM
SMILES: COC(=O)c1ccc(OCCC2CC(=O)N2S(=O)(=O)c2ccc(C)cc2)cc1 (racemic) [Table III i), (±)-4-(2-p-Methoxycarbonylphenoxy)ethyl-N-toluenesulfonyl-2-azetidinone]

IC50 (Table III, n is 2, R3 is H): 90 nM
SMILES: Cc1ccc(S(=O)(=O)N2C(=O)CC2CCOCc2ccccc2)cc1 (racemic) [Table III ii), (±)-4-(2-Benzyloxy)ethyl-N-toluenesulfonyl-2-azetidinone]

SMILES: Cc1ccc(S(=O)(=O)N2C(=O)CC2CCOC(c2ccccc2)c2ccccc2)cc1 (racemic) [Table III iii), (±)-4-(2-Diphenylmethoxy)ethyl-N-toluenesulfonyl-2-azetidinone]
IC50 (Table III, n is 2, R3 is H): 61 nM

IC50 [1]: 120 nM
SMILES: CC[C@@H]1C(=O)N(S(=O)(=O)c2ccc(C)cc2)[C@@H]1CSc1ccccc1 (relative stereo) [Table II i)]

IC50 [1]: 67 nM
SMILES: CC[C@@H]1C(=O)N(S(=O)(=O)c2ccc(C)cc2)[C@@H]1COC (relative stereo) [Table II ii), (±)-cis-3-Ethyl-4-methoxymethyl-N-toluenesulfonyl-2-azetidinone]

IC50 [1]: 60 nM
SMILES: CC[C@@H]1C(=O)N(S(=O)(=O)c2ccc(C)cc2)[C@@H]1CF (relative stereo) [Table II iii), (±)-cis-3-Ethyl-4-fluoromethyl-N-toluenesulfonyl-2-azetidinone]

IC50 [2]: 65 nM
SMILES: CC[C@@H]1C(=O)N(S(=O)(=O)c2ccc(C)cc2)[C@@H]1CCOc1ccc(C(=O)OC)cc1 (relative stereo) [Table IV i), (±)-cis-3-Ethyl-4-(2-p-methoxycarbonylphenoxy)ethyl-N-toluenesulfonyl-2-azetidinone]

IC50 [2]: 1400 nM
SMILES: COC[C@H]1C(=O)N(S(=O)(=O)c2ccc(C)cc2)[C@@H]1CCOc1ccc(C(=O)OC)cc1 (relative stereo) [Table IV ii)]

IC50 [2]: 640 nM
SMILES: CC[C@@H]1C(=O)N(S(=O)(=O)c2ccc(C)cc2)[C@@H]1CCS(=O)(=O)c1ccccc1 (relative stereo) [Table IV iii), (±)-3-Ethyl-4-(2-phenylsulfonyl)ethyl-N-toluenesulfonyl-2-azetidinone]

IC50 (Table I, n is 1, R3 is H): 70 nM
SMILES: Cc1ccc(S(=O)(=O)N2C(=O)C[C@H]2CSc2ccccc2)cc1 [Table I i), (4S)-4-Thiophenoxymethyl-N-toluenesulfonyl-2-azetidinone]

IC50 (Table I, n is 1, R3 is H): 120 nM
SMILES: Cc1ccc(S(=O)(=O)N2C(=O)C[C@H]2C[S+]([O-])c2ccccc2)cc1 (stereo partly drawn) [Table I ii)]

IC50 (Table I, n is 1, R3 is H): 120 nM
SMILES: Cc1ccc(S(=O)(=O)N2C(=O)C[C@H]2CS(=O)(=O)c2ccccc2)cc1 [Table I iii), (4S)-4-Phenylsulfonymethyl-N-toluenesulfonyl-2-azetidinone]

IC50 (Table I, n is 1, R3 is H): 46 nM
SMILES: COC(=O)c1ccc(OC[C@@H]2CC(=O)N2S(=O)(=O)c2ccc(C)cc2)cc1 [Table I iv), (4S)-4-p-Methoxycarbonylphenoxymethyl-N-toluenesulfonyl-2-azetidinone]

IC50 (Table I, n is 1, R3 is H): 820 nM
SMILES: Cc1ccc(S(=O)(=O)N2C(=O)C[C@H]2CI)cc1 [Table I v)]

IC50 (Table V, n is 3, R3 is H): 190 nM
SMILES: COC(=O)c1ccc(OCCCC2CC(=O)N2S(=O)(=O)c2ccc(C)cc2)cc1 (stereo not drawn) [Table V i)]

IC50 (Table V, n is 3, R3 is H): 140 nM
SMILES: Cc1ccc(S(=O)(=O)N2C(=O)CC2CCCOc2ccccc2)cc1 (stereo not drawn) [Table V ii)]

IC50 (Table V, n is 3, R3 is H): 130 nM
SMILES: Cc1ccc(S(=O)(=O)N2C(=O)CC2CCCBr)cc1 (stereo not drawn) [Table V iii)]

IC50 (Table VI, n is 4): 3600 nM
SMILES: COCC1C(=O)N(S(=O)(=O)c2ccc(C)cc2)C1CCCCC(C)CC(C)=CC(C)=CC(=O)OC [Table VI i), (3R,4R,5'R)-(E,E)-3-Methoxymethyl-4-(10'-methoxycarbonyl-5',7',9'-trimethyl-7',9'-decadienyl)-N-toluensulfonyl-2-azetidinone]
